The source of these data is patent US11325899B2, “Benzofurane and benzothiophene derivatives as PGE2 receptor modulators” (IDORSIA PHARMACEUTICALS LTD, priority 2017, dated 2022).

Broadly, the IC50 is the concentration that inhibits the measured activity by half.

In one assay the target is T1, PTGER2 (EP2) (Homo sapiens, UniProt P43116).
T1 construct: host or cells: HEK 293 (PathHunter PTGER2 b-arrestin cell line)
Put plainly: hEP2 b-arrestin assay (PathHunter HEK 293 PTGER2 b-arrestin cells). In kind it is cell-based. Particulars: antagonistic activity, beta-arrestin assay; read-out: hEP2 b-arr IC50. Summed up:
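Antagonism measured as inhibition of PGE2-driven β-arrestin 2 recruitment (enzyme fragment complementation, luminescence) in engineered HEK293 EP2 cells. Agonist: 5 μM PGE2, ~EC80, 120 min at 37 °C after 15 min compound preincubation; test range 10 μM-2 nM or 1 μM-0.2 nM, duplicates, IC50 fitted.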

The target of the next assay is T2, EP4 receptor (Homo sapiens, UniProt P35408).
T2 construct: BT549 breast cancer cells, express high endogenous EP4 levels and very low EP2 levels; host or cells: BT549 breast cancer cells
Put plainly: hEP4 cAMP assay (BT549 breast cancer cells, HTRF cAMP, PGE2 stimulation). In kind it is cell-based. The following applies: antagonistic activity, PGE2 6 nM (EC80). Summed up: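 BT549 cells, with endogenous EP4 and very low EP2, were preincubated 45 min at room temperature with compound in HBSS/HEPES/BSA buffer with 2 mM IBMX. They were then stimulated 30 min with 6 nM PGE2 (EC80). cAMP was measured by HTRF competitive immunoassay against a calibrator; IC50 from duplicate dose-response as % of DMSO control.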
Background: cAMP levels reflect the balance of adenylyl cyclase and phosphodiesterase activity.

T2 sequence (P35408 whole entry): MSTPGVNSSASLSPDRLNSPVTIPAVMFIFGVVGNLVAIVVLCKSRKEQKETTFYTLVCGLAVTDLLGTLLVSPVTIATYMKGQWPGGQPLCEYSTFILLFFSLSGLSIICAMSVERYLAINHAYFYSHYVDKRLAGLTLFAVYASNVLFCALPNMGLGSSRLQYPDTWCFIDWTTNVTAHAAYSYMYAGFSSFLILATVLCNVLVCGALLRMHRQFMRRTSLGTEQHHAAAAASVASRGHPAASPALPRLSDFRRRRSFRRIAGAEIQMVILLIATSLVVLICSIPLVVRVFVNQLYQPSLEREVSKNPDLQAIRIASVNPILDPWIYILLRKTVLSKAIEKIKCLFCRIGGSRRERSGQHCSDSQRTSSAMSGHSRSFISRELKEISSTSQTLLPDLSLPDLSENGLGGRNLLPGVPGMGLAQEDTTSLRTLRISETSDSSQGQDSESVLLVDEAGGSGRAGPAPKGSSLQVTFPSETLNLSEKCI
T1 sequence (P43116 whole entry): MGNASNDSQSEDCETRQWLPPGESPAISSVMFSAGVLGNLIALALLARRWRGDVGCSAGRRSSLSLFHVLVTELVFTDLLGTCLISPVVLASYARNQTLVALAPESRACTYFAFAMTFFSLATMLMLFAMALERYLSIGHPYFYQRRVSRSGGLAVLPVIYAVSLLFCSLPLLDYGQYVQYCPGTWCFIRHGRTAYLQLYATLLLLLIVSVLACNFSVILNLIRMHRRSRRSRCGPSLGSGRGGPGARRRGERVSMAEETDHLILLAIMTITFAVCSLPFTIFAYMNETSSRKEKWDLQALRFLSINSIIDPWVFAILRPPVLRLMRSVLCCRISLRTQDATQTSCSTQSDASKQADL

For `CCOc1nc(-c2cc(NCCc3c(C)sc4c(C)cc(F)cc34)ncn2)sc1-c1noc(=O)[nH]1` [Example 162, 3-(4-Ethoxy-2-{6-[2-(5-fluoro-2,7-dimethyl-benzo[b]thiophen-3-yl)-ethylamino]-pyrimidin-4-yl}-thiazol-5-yl)-[1,2,4]oxadiazol-5(4H)-one [tautomeric form: 3-(4-ethoxy-2-(6-((2-(5-fluoro-2,7-dimethylbenzo[b]thiophen-3-yl)ethyl)amino)pyrimidin-4-yl)thiazol-5-yl)-[1,2,4]oxadiazol-5-ol]], the IC50 at PTGER2 (EP2) was 6 nM; against EP4 receptor it was 51 nM.
The corresponding values for `CCc1nc(-c2cc(NCCc3c(C)sc4c(C)cc(F)cc34)ncn2)sc1-c1noc(=O)[nH]1` [Example 163, 3-(4-Ethyl-2-{6-[2-(5-fluoro-2,7-dimethyl-benzo[b]thiophen-3-yl)-ethylamino]-pyrimidin-4-yl}-thiazol-5-yl)-[1,2,4]oxadiazol-5(4H)-one [tautomeric form: 3-(4-ethyl-2-(6-((2-(5-fluoro-2,7-dimethylbenzo[b]thiophen-3-yl)ethyl)amino)pyrimidin-4-yl)thiazol-5-yl)-[1,2,4]oxadiazol-5-ol]] are 26 nM and 429 nM.
For `CCOc1cc(-c2cc(NCCc3c(C#N)sc4c(OC)cccc34)ncn2)ccc1CC(=O)O` [Example 164, (4-{6-[2-(2-Cyano-7-methoxy-benzo[b]thiophen-3-yl)-ethylamino]-pyrimidin-4-yl}-2-ethoxy-phenyl)-acetic acid] the same measures were 504 nM and 17 nM.
The corresponding values for `CCOc1cc(-c2cc(NCCc3c(C#N)sc4c(C)cc(F)cc34)ncn2)cc(F)c1CC(=O)O` [Example 165, (4-{6-[2-(2-Cyano-5-fluoro-7-methyl-benzo[b]thiophen-3-yl)-ethylamino]-pyrimidin-4-yl}-2-ethoxy-6-fluoro-phenyl)-acetic acid] are 28 nM and 40 nM.
For `Cc1sc2c(C)cccc2c1CCNc1cc(-c2ccc(C(=O)O)c(SCC(C)C)c2)ncn1` [Example 166, 4-{6-[2-(2,7-Dimethyl-benzo[b]thiophen-3-yl)-ethylamino]-pyrimidin-4-yl}-2-isobutylsulfanyl-benzoic acid], the IC50 on PTGER2 (EP2) came to 31 nM; against EP4 receptor, 1130 nM.
For `CCCc1cc(-c2cc(NCCc3c(C#N)sc4c(C)cc(F)cc34)ncn2)ccc1C(=O)O` [Example 167, 4-{6-[2-(2-Cyano-5-fluoro-7-methyl-benzo[b]thiophen-3-yl)-ethylamino]-pyrimidin-4-yl}-2-propyl-benzoic acid] the same measures were 5 nM and 29 nM.
For `COc1cc(-c2cc(NCCc3c(C#N)sc4c(C)cc(F)cc34)ncn2)ccc1CC(=O)O` [Example 168, (4-{6-[2-(2-Cyano-5-fluoro-7-methyl-benzo[b]thiophen-3-yl)-ethylamino]-pyrimidin-4-yl}-2-methoxy-phenyl)-acetic acid] the same measures were 65 nM and 2990 nM.
The corresponding values for `CCCOc1cc(-c2cc(NCCc3c(C#N)sc4c(C)cc(F)cc34)ncn2)ccc1CC(=O)O` [Example 169, (4-{6-[2-(2-Cyano-5-fluoro-7-methyl-benzo[b]thiophen-3-yl)-ethylamino]-pyrimidin-4-yl}-2-propoxy-phenyl)-acetic acid] are 30 nM and 30 nM.
For the compound `CCCc1cc(-c2cc(NCCc3c(C#N)sc4c(C)cc(F)cc34)ncn2)ccc1CC(=O)O` [Example 170, (4-{6-[2-(2-Cyano-5-fluoro-7-methyl-benzo[b]thiophen-3-yl)-ethylamino]-pyrimidin-4-yl}-2-propyl-phenyl)-acetic acid], the IC50 on PTGER2 (EP2) came out at 19 nM; against EP4 receptor, 13 nM.
For `Cc1cc(F)cc2c(CCNc3cc(-c4ccc(CC(=O)O)c(OC(C)C)c4)ncn3)c(C#N)sc12` [Example 171, (4-{6-[2-(2-Cyano-5-fluoro-7-methyl-benzo[b]thiophen-3-yl)-ethylamino]-pyrimidin-4-yl}-2-isopropoxy-phenyl)-acetic acid] the same measures were 59 nM and 42 nM.
The corresponding values for `Cc1cc(F)cc2c(CCNc3cc(-c4ccc(C(=O)O)c(OC(C)C)c4)ncn3)c(C#N)sc12` [Example 172, 4-{6-[2-(2-Cyano-5-fluoro-7-methyl-benzo[b]thiophen-3-yl)-ethylamino]-pyrimidin-4-yl}-2-isopropoxy-benzoic acid] are 40 nM and 70 nM.
Consider `CCOc1cc(-c2cc(NCCc3c(C#N)sc4c(C)cc(F)cc34)ncn2)ccc1OCCC(=O)O` [Example 176, 3-(4-{6-[2-(2-Cyano-5-fluoro-7-methyl-benzo[b]thiophen-3-yl)-ethylamino]-pyrimidin-4-yl}-2-ethoxy-phenoxy)-propionic acid], for which the IC50 on PTGER2 (EP2) came out at 9 nM; on EP4 receptor, 12 nM.
The corresponding values for `Cc1sc2c(C)cc(F)cc2c1CCNc1cc(-c2ccc(CC(=O)O)c(CC(C)C)c2)ncn1` [Example 182, (4-{6-[2-(5-Fluoro-2,7-dimethyl-benzo[b]thiophen-3-yl)-ethylamino]-pyrimidin-4-yl}-2-isobutyl-phenyl)-acetic acid] are 41 nM and 378 nM.
The corresponding values for `Cc1sc2c(C)cc(F)cc2c1CCNc1cc(-c2ccc(C(=O)O)c(OCC(C)C)c2)ncn1` [Example 184, 4-{6-[2-(5-Fluoro-2,7-dimethyl-benzo[b]thiophen-3-yl)-ethylamino]-pyrimidin-4-yl}-2-isobutoxy-benzoic acid] are 7 nM and 553 nM.
For `CCCc1cc(-c2cc(NCCc3c(C)sc4c(C)cc(F)cc34)ncn2)ccc1CC(=O)O` [Example 186, (4-{6-[2-(5-Fluoro-2,7-dimethyl-benzo[b]thiophen-3-yl)-ethylamino]-pyrimidin-4-yl}-2-propyl-phenyl)-acetic acid] the same measures were 22 nM and 252 nM.
On to `CCOc1cc(-c2cc(NCCc3c(C)sc4c(C)cc(F)cc34)ncn2)ccc1C(=O)C(=O)O` [Example 189, (2-Ethoxy-4-{6-[2-(5-fluoro-2,7-dimethyl-benzo[b]thiophen-3-yl)-ethylamino]-pyrimidin-4-yl}-phenyl)-oxo-acetic acid], for which the values for the IC50 on PTGER2 (EP2) and against EP4 receptor were 20 nM and 121 nM, respectively.
Take `CCCOc1cc(-c2cc(NCCc3c(C)sc4c(C)cc(F)cc34)ncn2)ccc1CC(=O)O` [Example 190, (4-{6-[2-(5-Fluoro-2,7-dimethyl-benzo[b]thiophen-3-yl)-ethylamino]-pyrimidin-4-yl}-2-propoxy-phenyl)-acetic acid]: the IC50 was 28 nM on PTGER2 (EP2) and 219 nM against EP4 receptor.
